Measured values published in patent US7906684B2, “Antioxidants” (Merck Patent Gesellschaft Mit Beschrankter Haftung, priority 2006, dated 2011).

Columns and labels:
[1] = TEAC assay (trolox equivalent antioxidant capacity), Bünger et al. method; conditions: according to the Bünger et al. method
Text: (§1) A detailed description, besides the […] just described, for the lipid assay (or 2,2′-azobis(2-aminopropane)=ABAP assay) or the TEAC assay (TEAC=trolox equivalent antioxidant capacity) is also found in Bünger et al, International Journal of Cosmetic Science, 2006, 28, 135-146.

[2] = Photoconversion test, substance on roughened Perspex plates, sun simulation; type: physicochemical; conditions: 0.75 mg/cm^−2 on roughened Perspex plates, FIG. 1
Procedure: The substance is applied to roughened Perspex plates (0.75 mg/cm^−2) and irradiated under sun simulation. The dose is to be understood as the absolute, unweighted total UV irradiation dose. After each irradiation step, the UV absorption of the sample is measured against placebo (placebo=Perspex plate with glycerol).

[3] = lipid assay (2,2'-azobis(2-aminopropane) = ABAP assay), Bünger et al. method; conditions: according to the Bünger et al. method
Text: as §1

[4] = Photoconversion test, 4% solution in isopropyl myristate on Perspex support, simulated solar irradiation; type: physicochemical; conditions: 2 μlcm^−2 on rough Perspex, Suntester 1 h 50 min, extracted with isopropanol, made up to 50 ml
Procedure: A 4% solution of the substance in isopropyl myristate is applied at a rate of 2 μlcm^−2 to a rough Perspex support. The sample is subjected to simulated solar irradiation in a Suntester for 1 h 50 min. After irradiation, the sample is extracted with 40 ml of isopropanol and made up to a precise volume of 50 ml. Compared with an unirradiated sample, an increase in absorbance at the substance maximum at 285 nm of 0.77 absorption units arises.

Row | SMILES | TEAC assay [1] | UV absorption of the sample after irradiation, measured against placebo [2] | lipid assay [3] | increase in absorbance at the substance maximum at 285 nm compared with an unirradiated sample [4]
1 | COc1ccc(C(O)c2ccccc2)c(O)c1 (stereo not shown) [Compound (5), 2-(hydroxyphenylmethyl)-5-methoxyphenol] | 50% | increases in absorption power due to irradiation | 8% | –
2 | COc1ccc(C(O)c2ccccc2)cc1 (stereo not shown) [Compound (9), (4-methoxyphenyl)phenylmethanol] | – | – | – | 0.77 absorption units
